Patent publication US9695155B2, “Herbicidal substituted pyrimidinyloxy benzene compounds” (E. I. DU PONT DE NEMOURS AND COMPANY, priority 2013, dated 2017)

Tests used:
field poppy = experiment: Test D preemergence; assay type: in vivo, Papaver rhoeas; conditions: Papaver rhoeas, pre-emergence; for pest or weed control at 16 g/ha: 16 g ai/ha, scale 0 (no effect) to 100 (complete control), read-out: Plant response rating, Field Poppy; for pest or weed control at 31 g/ha: 31 g ai/ha; for pest or weed control at 31 g/ha / pest or weed control at 62 g/ha / pest or weed control at 125 g/ha: scale 0-100, read-out: Plant response rating, Field Poppy; for pest or weed control at 62 g/ha: 62 g ai/ha; for pest or weed control at 125 g/ha: 125 g ai/ha
Procedure, shortened: (§1)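 Visual ratings from 0 (no effect) to 100 (complete control) relative to untreated plants were taken 7–21 days after treatment. Chemicals in a surfactant-containing solvent mixture were applied preemergence to seeds in silt loam, or postemergence to plants 2–18 cm tall (1–4 leaves) grown in a peat-based potting medium.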

wild buckwheat = experiment: Test D preemergence; assay type: in vivo, Polygonum convolvulus; conditions: Fallopia convolvulus, pre-emergence; for pest or weed control at 16 g/ha: 16 g ai/ha, scale 0 (no effect) to 100 (complete control), read-out: Plant response rating, Buckwheat, Wild; for pest or weed control at 31 g/ha: 31 g ai/ha; for pest or weed control at 31 g/ha / pest or weed control at 62 g/ha / pest or weed control at 125 g/ha: scale 0-100, read-out: Plant response rating, Buckwheat, Wild; for pest or weed control at 62 g/ha: 62 g ai/ha; for pest or weed control at 125 g/ha: 125 g ai/ha
Procedure, shortened: as §1

wild mustard = experiment: Test D preemergence; assay type: in vivo, Sinapis arvensis; conditions: Brassica, pre-emergence; for pest or weed control at 16 g/ha: 16 g ai/ha, scale 0 (no effect) to 100 (complete control), read-out: Plant response rating, Mustard, Wild; for pest or weed control at 31 g/ha: 31 g ai/ha; for pest or weed control at 31 g/ha / pest or weed control at 62 g/ha / pest or weed control at 125 g/ha: scale 0-100, read-out: Plant response rating, Mustard, Wild; for pest or weed control at 62 g/ha: 62 g ai/ha; for pest or weed control at 125 g/ha: 125 g ai/ha
Procedure, shortened: as §1

windgrass = experiment: Test D preemergence; assay type: in vivo, Apera spica-venti; conditions: Apera spica-venti, pre-emergence; for pest or weed control at 16 g/ha: 16 g ai/ha; for pest or weed control at 16 g/ha / pest or weed control at 31 g/ha: scale 0 (no effect) to 100 (complete control), read-out: Plant response rating, Windgrass; for pest or weed control at 31 g/ha: 31 g ai/ha; for pest or weed control at 62 g/ha: 62 g ai/ha; for pest or weed control at 62 g/ha / pest or weed control at 125 g/ha: scale 0-100, read-out: Plant response rating, Windgrass; for pest or weed control at 125 g/ha: 125 g ai/ha
Procedure, shortened: as §1

bromegrass, downy = experiment: Test D postemergence; assay type: in vivo, Bromus tectorum; conditions: Bromus tectorum, post-emergence, Postemergence, scale 0 to 100 (0 no effect, 100 complete control), read-out: Plant response rating, Bromegrass, Downy; for pest or weed control at 16 g/ha: 16 g ai/ha; for pest or weed control at 31 g/ha: 31 g ai/ha; for pest or weed control at 62 g/ha: 62 g ai/ha; for pest or weed control at 125 g/ha: 125 g ai/ha
Procedure, shortened: as §1

oilseed rape = experiment: Test D postemergence; assay type: in vivo, Brassica napus; conditions: Brassica napus, post-emergence; for plant injury at 16 g/ha: 16 g ai/ha, scale 0-100, read-out: Plant response rating, Oilseed Rape; for plant injury at 31 g/ha: 31 g ai/ha; for plant injury at 31 g/ha / plant injury at 62 g/ha / plant injury at 125 g/ha: scale 0 to 100 (0 no effect, 100 complete control), read-out: Plant response rating, Oilseed Rape; for plant injury at 62 g/ha: 62 g ai/ha; for plant injury at 125 g/ha: 125 g ai/ha
Procedure, shortened: as §1

chamomile = experiment: Test D postemergence; assay type: in vivo, Matricaria inodora; conditions: Tripleurospermum inodorum, post-emergence; for pest or weed control at 16 g/ha: 16 g ai/ha, scale 0-100, read-out: Plant response rating, Chamomile; for pest or weed control at 31 g/ha: 31 g ai/ha; for pest or weed control at 31 g/ha / pest or weed control at 62 g/ha / pest or weed control at 125 g/ha: scale 0 to 100 (0 no effect, 100 complete control), read-out: Plant response rating, Chamomile; for pest or weed control at 62 g/ha: 62 g ai/ha; for pest or weed control at 125 g/ha: 125 g ai/ha
Procedure, shortened: as §1

speedwell = experiment: Test D postemergence; assay type: in vivo, Veronica persica; conditions: Veronica persica, post-emergence; for pest or weed control at 16 g/ha: 16 g ai/ha, scale 0-100, read-out: Plant response rating, Speedwell; for pest or weed control at 31 g/ha: 31 g ai/ha; for pest or weed control at 31 g/ha / pest or weed control at 62 g/ha / pest or weed control at 125 g/ha: scale 0 to 100 (0 no effect, 100 complete control), read-out: Plant response rating, Speedwell; for pest or weed control at 62 g/ha: 62 g ai/ha; for pest or weed control at 125 g/ha: 125 g ai/ha
Procedure, shortened: as §1

spring barley = experiment: Test D postemergence; assay type: in vivo, Hordeum vulgare; conditions: Hordeum vulgare, post-emergence, Postemergence, scale 0 to 100 (0 no effect, 100 complete control), read-out: Plant response rating, Barley, Spring; for plant injury at 16 g/ha: 16 g ai/ha; for plant injury at 31 g/ha: 31 g ai/ha; for plant injury at 62 g/ha: 62 g ai/ha; for plant injury at 125 g/ha: 125 g ai/ha
Procedure, shortened: as §1

winter barley = experiment: Test D postemergence; assay type: in vivo, Hordeum vulgare; conditions: Hordeum vulgare, post-emergence, Postemergence, scale 0 to 100 (0 no effect, 100 complete control), read-out: Plant response rating, Barley, Winter; for plant injury at 16 g/ha: 16 g ai/ha; for plant injury at 31 g/ha: 31 g ai/ha; for plant injury at 62 g/ha: 62 g ai/ha; for plant injury at 125 g/ha: 125 g ai/ha
Procedure, shortened: as §1

Compound	pest or weed control at 16 g/ha (field poppy) [%]	pest or weed control at 31 g/ha (field poppy) [%]	pest or weed control at 62 g/ha (field poppy) [%]	pest or weed control at 125 g/ha (field poppy) [%]	pest or weed control at 16 g/ha (wild buckwheat) [%]	pest or weed control at 31 g/ha (wild buckwheat) [%]	pest or weed control at 62 g/ha (wild buckwheat) [%]	pest or weed control at 125 g/ha (wild buckwheat) [%]	pest or weed control at 16 g/ha (wild mustard) [%]	pest or weed control at 31 g/ha (wild mustard) [%]	pest or weed control at 62 g/ha (wild mustard) [%]	pest or weed control at 125 g/ha (wild mustard) [%]	pest or weed control at 16 g/ha (windgrass) [%]	pest or weed control at 31 g/ha (windgrass) [%]	pest or weed control at 62 g/ha (windgrass) [%]	pest or weed control at 125 g/ha (windgrass) [%]	pest or weed control at 16 g/ha (bromegrass, downy) [%]	pest or weed control at 31 g/ha (bromegrass, downy) [%]	pest or weed control at 62 g/ha (bromegrass, downy) [%]	pest or weed control at 125 g/ha (bromegrass, downy) [%]	also measured
FC(F)(F)COc1cnn(-c2ccccc2Oc2ncc(Cl)cn2)c1 [Compound 138, 5-chloro-2-[2-[4-(2,2,2-trifluoroethoxy)-1H-pyrazol-1-yl]phenoxy]pyrimidine]	100	100	100	100	60	35	55	75	55	65	100	100	0	0	0	15	0	0	5	5	plant injury at 16 g/ha (oilseed rape): 70%; plant injury at 31 g/ha (oilseed rape): 70%; plant injury at 62 g/ha (oilseed rape): 75%; plant injury at 125 g/ha (oilseed rape): 75%; pest or weed control at 16 g/ha (chamomile): 0%; pest or weed control at 31 g/ha (chamomile): 0%; pest or weed control at 62 g/ha (chamomile): 0%; pest or weed control at 125 g/ha (chamomile): 0%; pest or weed control at 16 g/ha (speedwell): 70%; pest or weed control at 31 g/ha (speedwell): 70%; pest or weed control at 62 g/ha (speedwell): 75%; pest or weed control at 125 g/ha (speedwell): 75%; plant injury at 16 g/ha (spring barley): 10%; plant injury at 31 g/ha (spring barley): 10%; plant injury at 62 g/ha (spring barley): 10%; plant injury at 125 g/ha (spring barley): 15%; plant injury at 16 g/ha (winter barley): 5%; plant injury at 31 g/ha (winter barley): 5%; plant injury at 62 g/ha (winter barley): 5%; plant injury at 125 g/ha (winter barley): 10%
FC(F)(F)c1cn(-c2ccccc2Oc2ncc(Cl)cn2)nn1 [Compound 166, 5-chloro-2-[2-[4-(trifluoromethyl)-1H-1,2,3-triazol-1-yl]phenoxy]pyrimidine]	100	100	100	100	60	95	100	100	65	95	100	100	50	75	100	100	15	20	35	50	plant injury at 16 g/ha (oilseed rape): 60%; plant injury at 31 g/ha (oilseed rape): 65%; plant injury at 62 g/ha (oilseed rape): 95%; plant injury at 125 g/ha (oilseed rape): 100%; pest or weed control at 16 g/ha (chamomile): 5%; pest or weed control at 31 g/ha (chamomile): 5%; pest or weed control at 62 g/ha (chamomile): 10%; pest or weed control at 125 g/ha (chamomile): 15%; pest or weed control at 16 g/ha (speedwell): 70%; pest or weed control at 31 g/ha (speedwell): 85%; pest or weed control at 62 g/ha (speedwell): 100%; pest or weed control at 125 g/ha (speedwell): 100%; plant injury at 16 g/ha (spring barley): 10%; plant injury at 31 g/ha (spring barley): 20%; plant injury at 62 g/ha (spring barley): 30%; plant injury at 125 g/ha (spring barley): 45%; plant injury at 16 g/ha (winter barley): 5%; plant injury at 31 g/ha (winter barley): 15%; plant injury at 62 g/ha (winter barley): 25%; plant injury at 125 g/ha (winter barley): 35%
Fc1cccc(Oc2ncc(Cl)cn2)c1-n1cc(Br)cn1 [Compound 178, 2-[2-(4-bromo-1H-pyrazol-1-yl)-3-fluorophenoxy]-5-chloropyrimidine]	20	70	85	85	15	55	100	100	25	35	95	95	75	75	70	95	5	5	10	20	plant injury at 16 g/ha (oilseed rape): 60%; plant injury at 31 g/ha (oilseed rape): 65%; plant injury at 62 g/ha (oilseed rape): 80%; plant injury at 125 g/ha (oilseed rape): 90%; pest or weed control at 16 g/ha (chamomile): 0%; pest or weed control at 31 g/ha (chamomile): 0%; pest or weed control at 62 g/ha (chamomile): 5%; pest or weed control at 125 g/ha (chamomile): 5%; pest or weed control at 16 g/ha (speedwell): 70%; pest or weed control at 31 g/ha (speedwell): 80%; pest or weed control at 62 g/ha (speedwell): 100%; pest or weed control at 125 g/ha (speedwell): 100%; plant injury at 16 g/ha (spring barley): 0%; plant injury at 31 g/ha (spring barley): 5%; plant injury at 62 g/ha (spring barley): 5%; plant injury at 125 g/ha (spring barley): 10%; plant injury at 16 g/ha (winter barley): 0%; plant injury at 31 g/ha (winter barley): 0%; plant injury at 62 g/ha (winter barley): 5%; plant injury at 125 g/ha (winter barley): 10%
